Test results reported in patent US6362181B1, “Isoquinolones” (Warner-Lambert Company, priority 1996, dated 2002).
In brackets after ≈: the same amount, converted by molar mass. Where two headings read alike, the source gives them in different places.

What was measured:
B. subtilis RB1 = assay: Antibacterial assay, standard microtitration, MIC; type: cell-based; conditions: Gram positive; for MIC: Bacillus subtilis, read-out: Minimum Inhibitory Concentrations, B. subtilis RB1
Experimental: (§1) The compounds of the present invention were tested against an assortment of gram negative and gram positive organisms using standard microtitration techniques (Cohen, et al., Antimicrob. Agents Chemother., 1985;28:766; Heifetz, et al. Antimicrob. Agents Chemother., 1974;6:124).

E. coli B90 = assay: Antibacterial assay, standard microtitration, MIC; type: cell-based; conditions: Gram negative; for MIC: Escherichia coli, read-out: Minimum Inhibitory Concentrations, E. coli B90
Experimental: as §1

E. coli MC4100 = assay: Antibacterial assay, standard microtitration, MIC; type: cell-based; conditions: Gram negative; for MIC: Escherichia coli, read-out: Minimum Inhibitory Concentrations, E. coli MC4100
Experimental: as §1

E. coli To1C = assay: Antibacterial assay, standard microtitration, MIC; type: cell-based; conditions: for MIC: Escherichia coli, TO1C, read-out: Minimum Inhibitory Concentrations, E. coli To1C
Experimental: as §1

S. aureus 29213 = assay: Antibacterial assay, standard microtitration, MIC; type: cell-based; conditions: Gram positive; for MIC: Staphylococcus aureus, read-out: Minimum Inhibitory Concentrations, S. aureus 29213
Experimental: as §1

S. pyogenes C203 = assay: Antibacterial assay, standard microtitration, MIC; type: cell-based; conditions: Gram positive; for MIC: Streptococcus pyogenes, read-out: Minimum Inhibitory Concentrations, S. pyogenes C203
Experimental: as §1

relaxed plasmid pBR322 = assay: DNA intercalation/binding assay; conditions: pBR322 with calf thymus topoisomerase I, 30 minutes at 37° C.; read-out: Drug Concentration causing 50% Intercalation of DNA
Experimental: Compounds of the present invention were evaluated for their ability to intercalate/bind to DNA, using the procedure described in Nucleic Acids Research, 1987;15(15):6713. Specifically, 0.2 μg of relaxed plasmid pBR322 (Lucent, Ltd., Leicester, UK) was treated with 2 U of calf thymus topoisomerase I (Gibco/BRL, Gaithersburg, Md.) in buffer I (10 mM Tris-HCl (Ph 7.5), 50 mM KCl, 5 mM MgCl2, 1 mM Na2EDTA, 15 μg/mL bovine serum albumin) in the presence or absence of test compounds. Reaction were incubated for 30 minutes at 37° C.; volumes were typically 30 μL. Reactions were terminated by the addition of sodium dodecylsulfate (SDS) to 1% and proteinase K to 0.5 mg/mL final concentrations. After an additional 30 minutes at 37° C., one-tenth volume of 10×concentrated loading buffer (0.3% bromophenol blue, 16% Ficoll, 10 mM Na2HPO4) was added, and samples were loaded onto horizontal 0.8% agarose gels prepared in TAE buffer. Electrophoresis was at 22 V for 14 hours. Gels were then stained by soaking for 1.5 hours in deionized water containing 0.2 μg/mL of ethidium bromide, followed by destaining in deionized water for an additional 1.5 hours. Gels were examined and photographed following exposure to UV light. The concentration of the drug which induced a 50% change in the DNA by intercalation is represented by an intercalation IC50 and is recorded in Table 4.

E. coli gyrase = target: T1, E. coli gyrase (Escherichia coli, UniProt P0AES4+P0AES6); assay: DNA gyrase supercoiling inhibition assay; type: biochemical
T1 construct: purchased Lucent, Ltd., Leicester, UK
T1 sequence (P0AES4 whole entry, one chain of several): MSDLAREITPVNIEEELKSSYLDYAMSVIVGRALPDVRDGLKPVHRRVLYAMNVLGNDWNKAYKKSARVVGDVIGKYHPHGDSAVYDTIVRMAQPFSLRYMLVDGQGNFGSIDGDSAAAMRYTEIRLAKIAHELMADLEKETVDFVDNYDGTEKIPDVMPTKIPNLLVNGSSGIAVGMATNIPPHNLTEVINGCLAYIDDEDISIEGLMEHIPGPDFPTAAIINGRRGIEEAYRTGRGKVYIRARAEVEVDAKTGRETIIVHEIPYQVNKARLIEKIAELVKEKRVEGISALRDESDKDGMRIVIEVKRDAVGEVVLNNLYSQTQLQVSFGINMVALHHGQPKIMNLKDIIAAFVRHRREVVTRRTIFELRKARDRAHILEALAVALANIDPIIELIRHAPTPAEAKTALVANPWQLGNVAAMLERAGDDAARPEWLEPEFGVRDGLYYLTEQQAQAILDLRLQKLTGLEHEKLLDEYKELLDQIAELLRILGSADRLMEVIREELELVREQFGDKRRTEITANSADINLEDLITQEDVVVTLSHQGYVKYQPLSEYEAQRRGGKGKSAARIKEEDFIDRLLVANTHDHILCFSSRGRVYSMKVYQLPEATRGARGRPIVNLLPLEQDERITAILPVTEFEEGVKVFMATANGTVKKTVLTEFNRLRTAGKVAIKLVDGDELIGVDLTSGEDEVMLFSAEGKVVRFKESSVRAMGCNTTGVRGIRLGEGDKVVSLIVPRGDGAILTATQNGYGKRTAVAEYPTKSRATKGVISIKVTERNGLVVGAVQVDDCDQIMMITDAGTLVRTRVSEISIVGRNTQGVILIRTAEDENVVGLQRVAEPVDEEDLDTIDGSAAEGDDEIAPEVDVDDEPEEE
Experimental: The effects of test agents on the activity of DNA gyrase was determined by the supercoiling inhibition assay, following reaction conditions recommended by the enzyme supplier (Lucent, Ltd., Leicester, UK), as follows. Reactions were performed in buffer G (35 mM Tris-HCL (pH 7.5), 24 mM KCl, 4 mM MgCl2, 2 mM DTT, 1.8 mM spermidine, 1 mM ATP, 0.1 mg/mL bovine serum albumin). 0.25 μg of relaxed plasmid pBR322 (Lucent, Ltd., Leicester, UK) was reacted with 1 U E. coli gyrase (Lucent, Ltd., Leicester, UK), in the absence or presence of drugs, for 30 minutes at 37° C. Reactions were stopped by the addition of SDS and proteinase K to respective final concentrations of 1% and 0.5 mg/mL. After an additional 30 minutes at 37° C., one-tenth volume of 10×loading buffer (0.3% bromophenol blue, 16% Ficoll, 10 mM Na2HPO4) was added, and reactions were loaded onto agarose gels and electrophoresed as described above for intercalation assays. The concentration of drug inhibiting 50% of the supercoiling activity of DNA gyrase is given as an IC50 and recorded in Table 2.

E. coli topoisomerase IV = target: T2, E. coli topoisomerase IV (Escherichia coli, UniProt P0AFI2+P20083); assay: Topoisomerase IV k-DNA decatenation assay; type: biochemical; conditions: read-out: Top IV IC50
T2 construct: made in house; host or cells: E. coli overexpressing strains
T2 sequence (P0AFI2 whole entry): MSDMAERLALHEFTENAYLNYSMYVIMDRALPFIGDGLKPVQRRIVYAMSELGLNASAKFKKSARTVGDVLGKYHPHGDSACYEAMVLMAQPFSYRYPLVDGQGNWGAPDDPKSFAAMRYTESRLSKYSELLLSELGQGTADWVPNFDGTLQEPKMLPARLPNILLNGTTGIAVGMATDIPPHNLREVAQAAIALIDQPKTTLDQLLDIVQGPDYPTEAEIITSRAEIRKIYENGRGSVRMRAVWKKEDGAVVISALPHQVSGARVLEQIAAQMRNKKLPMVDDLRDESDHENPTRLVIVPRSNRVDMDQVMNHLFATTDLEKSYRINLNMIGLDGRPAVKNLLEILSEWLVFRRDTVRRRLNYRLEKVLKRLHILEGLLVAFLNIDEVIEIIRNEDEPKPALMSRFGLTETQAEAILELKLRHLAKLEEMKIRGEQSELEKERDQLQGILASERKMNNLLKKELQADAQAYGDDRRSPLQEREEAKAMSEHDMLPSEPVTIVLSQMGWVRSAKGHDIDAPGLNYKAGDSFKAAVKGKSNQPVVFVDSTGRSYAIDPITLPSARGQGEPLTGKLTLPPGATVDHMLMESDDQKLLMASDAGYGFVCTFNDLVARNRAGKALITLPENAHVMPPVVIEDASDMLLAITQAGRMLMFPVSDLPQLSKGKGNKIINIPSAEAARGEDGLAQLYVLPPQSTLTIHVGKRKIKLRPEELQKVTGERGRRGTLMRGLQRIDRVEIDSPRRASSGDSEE
T2 sequence (P20083 whole entry): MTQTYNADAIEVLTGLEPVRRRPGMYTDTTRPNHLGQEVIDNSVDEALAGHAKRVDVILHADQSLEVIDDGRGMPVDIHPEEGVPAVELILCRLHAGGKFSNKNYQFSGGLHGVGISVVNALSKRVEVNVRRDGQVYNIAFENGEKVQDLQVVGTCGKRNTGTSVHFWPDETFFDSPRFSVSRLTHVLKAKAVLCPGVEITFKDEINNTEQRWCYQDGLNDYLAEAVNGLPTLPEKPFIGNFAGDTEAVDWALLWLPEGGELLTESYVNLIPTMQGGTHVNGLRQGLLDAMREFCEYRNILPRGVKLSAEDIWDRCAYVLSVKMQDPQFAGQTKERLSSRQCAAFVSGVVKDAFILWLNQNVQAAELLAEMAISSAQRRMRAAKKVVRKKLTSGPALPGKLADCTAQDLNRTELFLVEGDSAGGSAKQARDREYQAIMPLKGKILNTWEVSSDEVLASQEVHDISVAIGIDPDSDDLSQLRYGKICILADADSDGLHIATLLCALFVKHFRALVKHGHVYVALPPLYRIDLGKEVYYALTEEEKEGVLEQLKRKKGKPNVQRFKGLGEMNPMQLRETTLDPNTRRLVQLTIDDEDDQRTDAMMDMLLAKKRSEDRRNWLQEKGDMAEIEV
Experimental: Topoisomerase IV was purified from E. coli overexpressing strains and the compounds were assayed according to literature conditions (Journal of Biological Chemistry, 1993;268(32):24481). The k-DNA decatenation assay was used. Briefly, reactions were performed in buffer R (40 mM Tris-HCl (pH 7.5), 6 mM MgCl2, 10 mM DTT, 100 mM potassium glutamate, 40 μM ATP, 50 μg/mL bovine serum albumin, 10 mM NaCl). 0.2 μg of kinetoplast DNA (k-DNA; TopoGen, Columbus, Ohio) was incubated with 5 ng of E. coli topoisomerase IV in the presence or absence of test compounds for 10 minutes at 37° C. Subsequently, one-tenth volume of 10×gel loading buffer (0.3% bromophenol blue, 16% Ficoll, 10 mM Na2HPO4) was added, and samples were loaded onto horizontal 0.8% agarose gels prepared with TBE buffer and containing 0.05 μg/mL of ethidium bromide. Electrophoresis was at 70 V for 2 to 4 hours. Gels were then examined by exposure to UV light. The concentration of drug inhibiting 50% of the decantenating activity of Topoisomerase IV is given as an IC50 and recorded in Table 2.

[1] = supercoiling of relaxed pBR322, 30 minutes at 37° C., read-out: DNA Gyrase IC50
[2] = k-DNA decatenation, 10 minutes at 37° C.

Row | SMILES | MIC (B. subtilis RB1) | MIC (E. coli B90) | MIC (E. coli MC4100) | MIC (E. coli To1C) | MIC (S. aureus 29213) | MIC (S. pyogenes C203) | IC50 (relaxed plasmid pBR322) | IC50 (E. coli gyrase) | melting point | Minimum Inhibitory Concentrations, B. subtilis RB1 (B. subtilis RB1) | Minimum Inhibitory Concentrations, E. coli B90 (E. coli B90) | Minimum Inhibitory Concentrations, E. coli MC4100 (E. coli MC4100) | Minimum Inhibitory Concentrations, E. coli To1C (E. coli To1C; Gram negative, E. coli To1C) | Minimum Inhibitory Concentrations, S. aureus 29213 (S. aureus 29213) | Minimum Inhibitory Concentrations, S. pyogenes C203 (S. pyogenes C203) | IC50 (E. coli gyrase; [1]) | IC50 (E. coli topoisomerase IV) | IC50 (E. coli topoisomerase IV; [2])
1 | COc1cc2c3c(cccc3c1N)C(=O)N(O)C2=O [Example 30, 6-Amino-2-hydroxy-5-methoxy-benzo[de]isoquinoline-1,3-dione] | 4 µg/mL (≈ 15.5 µM) | 4 µg/mL (≈ 15.5 µM) | 8 µg/mL (≈ 31 µM) | 2 µg/mL (≈ 7.74 µM) | 4 µg/mL (≈ 15.5 µM) | 64 µg/mL (≈ 248 µM) | > 100 µM |  |  |  |  |  |  |  |  |  |  | 
2 | O=C1c2cccc3c(N4CCOCC4)c([N+](=O)[O-])cc(c23)C(=O)N1O [Example 81] | 8 µg/mL (≈ 23.3 µM) | 8 µg/mL (≈ 23.3 µM) | > 64 µg/mL | 8 µg/mL (≈ 23.3 µM) | 32 µg/mL (≈ 93.2 µM) | > 64 µg/mL | 94 µM | 19 µM | 272 to 274 °C |  |  |  |  |  |  |  |  | 
3 | NC1CCN(c2ccc3c4c(cc(Cl)c(Cl)c24)C(=O)N(O)C3=O)C1.O=C(O)C(F)(F)F (centres unmarked) [Example 117] |  |  |  |  |  |  |  |  |  | 2.0 µg/mL | 0.5 µg/mL | 2.0 µg/mL | 0.25 µg/mL | 8.0 µg/mL | 8.0 µg/mL | 10 µM | 4 µM | 
4 | Nc1c(Br)cc2c3c(cccc13)C(=O)N(O)C2=O [Example 26, 6-Amino-5-bromo-2-hydroxy-benzo[de]isoquinoline-1,3-dione] | 0.5 µg/mL (≈ 1.63 µM) | 0.25 µg/mL (≈ 0.814 µM) | 0.5 µg/mL (≈ 1.63 µM) |  | 2 µg/mL (≈ 6.51 µM) | > 64 µg/mL | > 100 µM |  |  |  |  |  |  |  |  | 7 µM |  | 10 µM
5 | O=C1c2cccc3c(Cl)c(Cl)cc(c23)C(=O)N1O [Example 103, 5,6-Dichloro-2-hydroxy-benzo[de]isoquinoline-1,3-dione] | 1 µg/mL (≈ 3.55 µM) | 0.5 µg/mL (≈ 1.77 µM) | 16 µg/mL (≈ 56.7 µM) | 0.5 µg/mL (≈ 1.77 µM) | 16 µg/mL (≈ 56.7 µM) | > 64 µg/mL | 26 µM |  |  |  |  |  |  |  |  | 4.9 µM |  | 19 µM
6 | O=C1c2ccc(N3CCCC3)c3cc(Br)cc(c23)C(=O)N1O [Example 59, 5-Bromo-2-hydroxy-7-(pyrrolidin-1-yl)-benzo[de]isoquinoline-1,3-dione] | 0.5 µg/mL (≈ 1.38 µM) | 0.06 µg/mL (≈ 0.166 µM) | 2 µg/mL (≈ 5.54 µM) | 0.06 µg/mL (≈ 0.166 µM) | 1 µg/mL (≈ 2.77 µM) | > 64 µg/mL | > 100 µM |  |  |  |  |  |  |  |  | 2.6 µM |  | 
7 | NCC1CCN(c2c(Cl)cc3c4c(cccc24)C(=O)N(O)C3=O)C1 (centres unmarked) [Example 85] | 1 µg/mL (≈ 2.89 µM) | 0.5 µg/mL (≈ 1.45 µM) | 1 µg/mL (≈ 2.89 µM) | 0.25 µg/mL (≈ 0.723 µM) | 4 µg/mL (≈ 11.6 µM) | 4 µg/mL (≈ 11.6 µM) |  | 2.1 µM |  |  |  |  |  |  |  |  |  | 
8 | CN(C)CCN1C(=O)c2cccc3cc(N)cc(c23)C1=O [Amonafide, amonafide, reference compound] | 64 µg/mL (≈ 226 µM) | 16 µg/mL (≈ 56.5 µM) | 64 µg/mL (≈ 226 µM) |  | 128 µg/mL (≈ 452 µM) | 4 µg/mL (≈ 14.1 µM) | < 10 µM |  |  |  |  |  |  |  |  |  |  | 
9 | O=C1c2cccc3c([N+](=O)[O-])ccc(c23)C(=O)N1O [Example 2, 2-Hydroxy-6-nitro-benzo[de]isoquinoline-1,3-dione] | 4 µg/mL (≈ 15.5 µM) | 4 µg/mL (≈ 15.5 µM) | 8 µg/mL (≈ 31 µM) |  | 2 µg/mL (≈ 7.75 µM) | 4 µg/mL (≈ 15.5 µM) | > 100 µM |  |  |  |  |  |  |  |  |  |  | 
